These results are taken from article PMC5031696, “Synthesis, Biodistribution and In vitro Evaluation of Brain Permeable High Affinity Type 2 Cannabinoid Receptor Agonists [^11C]MA2 and [^18F]MA3” (Frontiers in Neuroscience, 2016).

Assay [1] concerns the target T1, mCB2 (Mus musculus, UniProt P47936).
T1 construct: host or cells: CHO-K1 beta-arrestin cells
As to the kind of experiment: radioligand binding assay with [^3H]CP55940, mCB2. To be noted: competition with [^3H]CP55940; read-out: mCB2 Ki. Here is the method:
(§1) CHO-K1 beta-arrestin cells (DiscoveRx, Fremont, CA) expressing hCB2, mouse CB2 (mCB2), and human CB1 (hCB1) were cultured in F-12 Nutrient Mixture (HAM) supplemented with 10% fetal bovine serum (FBS), 300 μg/mL hygromycin and 800 μg/mL geneticin (G418). Cells were incubated in a humidified atmosphere at 37°C with 5% CO2.
(§2) Stably transfected cells were treated for 24 h with 5 mM butyrate in growth medium before harvesting, followed by homogenization in 15 mmol/L Hepes, 0.3 mmol/L EDTA, 1 mmol/L EGTA, 2 mmol/L MgCl2, complete EDTA-free protease inhibitor (Roche Applied Science, Rotkreuz, Switzerland), pH 7.4 using a glass potter and centrifugation at 47,800 g at 4°C for 30 min. The pellet was then rehomogenized twice in the same buffer and centrifuged (47,800 g, 4°C, 30 min). The final pellet was then resuspended in 75 mmol/L Tris, 0.3 mmol/L EDTA, 1 mmol/L EGTA, 12.5 mmol/L MgCl2, 250 mmol/L sucrose, pH 7.4 at a protein concentration of 1 to 3 mg/mL, aliquoted, frozen on dry ice and stored at −80°C. Saturation binding was performed with 0.05 to 2.6 nM [^3H]CP55940 (Perkin Elmer) and 1.0 μg of membrane protein. CP55940 (10 μM) was used to define non-specific binding. More than 95% of the total binding signal was specific. Assay buffer consisted of 50 mmol/L Tris-HCl, 5 mmol/L MgCl2, 2.5 mmol/L EGTA, and 0.1% fatty acid-free BSA, pH 7.4. Assays were initiated by addition of membranes in a final volume of 250 μL/well. Mixtures were incubated for 3 h at room temperature and then vacuum filtered and rinsed with wash buffer (50 mmol/L Tris-HCl, 5 mmol/L MgCl2, 2.5 mmol/L EGTA, and 0.5% fatty acid-free BSA, pH 7.4) on a Filtermate cell harvester through Packard GF/B filters presoaked in 0.3% polyethylenimine.
(§3) For competition binding, membrane preparations were incubated with 0.3 nM [^3H]CP55940 in the presence or absence of increasing concentrations of ligands for 60 min at 30°C in a final volume of 0.2 mL of 50 mmol/L Tris-HCl, 5 mmol/L MgCl2, 2.5 mmol/L EGTA, 0.1% fatty acid-free BSA, and 1% DMSO, pH 7.4, buffer, gently shaking. Non-specific binding was defined with 10 μM CP55940. All binding reactions were terminated by vacuum filtration onto 0.5% polyethylenimine presoaked GF/B filter plates (Packard) followed by seven brief washes with 2 mL of ice-cold binding buffer containing 0.5% fatty acid-free BSA. Plates were dried at 50°C for 1 h and liquid scintillation counting was used to determine bound radiolabel. IC50 values and Hill slopes were determined by a four parameter logistic model using ActivityBase (ID Business Solution, Guilford, UK). pKi values were determined by the generalized Cheng-Prusoff equation (Yung-Chi and Prusoff, [1973]).

In assay [2] the target is T2, hCB1 (Homo sapiens, UniProt P21554).
T2 construct: host or cells: CHO-K1 beta-arrestin cells
As to the kind of experiment: radioligand binding assay with [^3H]CP55940, hCB1. The note with it: for Ki: competition with [^3H]CP55940, read-out: hCB1 Ki; for Ki ratio hCB1/hCB2: selectivity. Here is the method: as §1, §2, §3

Assay [3] deals with T2, hCB1. As to the kind of experiment: functional cAMP assay, hCB1 versus hCB2. The assay is classed as cell-based. To be noted: cAMP assays. Here is the method: as §1
(§4) cAMP was measured using cAMP-Nano-TRF detection kit (Roche Diagnostics, Penzberg, Germany). Cells were seeded 17–24 h prior to the experiment 3 × 10^4 cells per well in a black 96-well plate with flat clear bottom (Corning, Wiesbaden, Germany) in growth medium and incubated in 5% CO2 at 37°C in a humidified incubator. The growth medium was exchanged with Krebs Ringer bicarbonate buffer with 1 mmol/L 3-isobutyl-1-methylxanthine (IBMX), 0.1% fatty acid-free bovine serum albumin (BSA) and incubated at 30°C for 60 min. Agonist was added to a final assay volume of 100 μL and the mixture was incubated for 30 min at 30°C. The assay was stopped by the addition of 50 μL 3x lysis reagent and shaken for 2 h at room temperature. The time-resolved energy transfer was measured using an LF502 Nanoscan FLT (IOM, Berlin, Germany), equipped with a laser as excitation source. cAMP content was determined from the function of a standard curve spanning from 10 to 0.13 nmol/L cAMP.

In assay [4] the target is T3, hCB2 (Homo sapiens, UniProt P34972).
T3 construct: host or cells: CHO-K1 beta-arrestin cells
As to the kind of experiment: radioligand binding assay with [^3H]CP55940, hCB2. The note with it: for Ki: competition with [^3H]CP55940, read-out: hCB2 Ki. Here is the method:
as §1, §2, §3

The target of assay [5] is T1, mCB2. The assay is described as follows: functional cAMP assay, mCB2. In kind it is cell-based. To be noted: CHO-K1 cells expressing mCB2; for EC50: read-out: mCB2 cAMP EC50. Here is the method:
as §1, §4
In general terms: Changes in cAMP serve as a functional read-out for many G protein-coupled receptors.

The target of assay [6] is T3, hCB2. The assay is described as follows: functional cAMP assay, hCB2. In kind it is cell-based. To be noted: for hCB2 cAMP % eff (efficacy) / EC50: CHO-K1 cells expressing hCB2; for EC50: read-out: hCB2 cAMP EC50; for functional behaviour in cAMP assay: hCB2. On the procedure: as §1, §4
The next assay has as its system CB2. The arrangement: method as in Evens et al., 2011. The note with it: ref Evens et al., 2011; cited from earlier work.

Structures are written as SMILES.

T2 sequence (P21554 whole entry): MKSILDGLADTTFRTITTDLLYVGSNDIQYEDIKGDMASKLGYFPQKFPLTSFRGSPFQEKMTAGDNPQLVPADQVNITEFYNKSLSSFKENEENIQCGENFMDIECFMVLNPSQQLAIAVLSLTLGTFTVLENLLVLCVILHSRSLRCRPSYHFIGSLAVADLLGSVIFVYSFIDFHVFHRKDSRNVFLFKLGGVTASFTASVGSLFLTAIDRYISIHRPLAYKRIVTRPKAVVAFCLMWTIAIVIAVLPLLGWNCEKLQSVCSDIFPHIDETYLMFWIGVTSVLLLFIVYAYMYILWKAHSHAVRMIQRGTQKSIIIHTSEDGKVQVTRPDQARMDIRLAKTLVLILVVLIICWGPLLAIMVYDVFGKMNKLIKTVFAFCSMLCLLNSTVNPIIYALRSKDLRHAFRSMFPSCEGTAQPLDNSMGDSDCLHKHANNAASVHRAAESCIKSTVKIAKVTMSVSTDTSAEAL
T3 sequence (P34972 whole entry): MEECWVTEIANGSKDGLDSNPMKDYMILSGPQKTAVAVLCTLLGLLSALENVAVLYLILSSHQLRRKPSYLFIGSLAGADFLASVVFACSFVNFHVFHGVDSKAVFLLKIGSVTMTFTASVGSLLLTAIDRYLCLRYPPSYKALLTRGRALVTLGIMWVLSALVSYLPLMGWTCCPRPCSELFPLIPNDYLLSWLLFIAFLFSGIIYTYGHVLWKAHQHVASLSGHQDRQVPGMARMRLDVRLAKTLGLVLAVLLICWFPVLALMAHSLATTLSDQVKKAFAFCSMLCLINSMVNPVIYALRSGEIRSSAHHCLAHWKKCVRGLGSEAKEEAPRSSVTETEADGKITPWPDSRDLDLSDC
T1 sequence (P47936 whole entry): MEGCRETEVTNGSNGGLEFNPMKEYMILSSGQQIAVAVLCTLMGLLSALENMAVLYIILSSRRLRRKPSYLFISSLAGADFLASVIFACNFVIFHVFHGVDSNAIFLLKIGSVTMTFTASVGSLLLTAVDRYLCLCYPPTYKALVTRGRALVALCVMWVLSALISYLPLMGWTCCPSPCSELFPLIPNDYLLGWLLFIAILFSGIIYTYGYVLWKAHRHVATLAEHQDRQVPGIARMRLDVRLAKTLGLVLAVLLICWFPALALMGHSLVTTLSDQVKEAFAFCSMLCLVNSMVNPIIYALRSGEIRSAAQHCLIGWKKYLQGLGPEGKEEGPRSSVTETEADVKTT

Turning to `FCCOc1ccc2ncc(NCCCc3nc(-c4ccc(F)cc4Cl)no3)cc2c1` [MA3, 6-(2-Fluoroethoxy)-N-(3-(3-(2-chloro-4-fluorophenyl)-1,2,4-oxadiazol-5-yl)propyl)quinolin-3-amine], on mCB2 [1], the Ki (usually the dissociation constant of the complex between target and ligand, obtained from inhibition or displacement) was found to be 2.6 nM. At hCB1 [2], the Ki came out at 102 nM and the “Ki ratio hCB1/hCB2” value is reported as 127. The “EC50 ratio hCB1/hCB2” value on hCB1 [3] is 563. Further, on hCB2 [4] (Ki comparison), the “times higher hCB2 affinity compared to 12” value is “about 4”, the “times higher hCB2 affinity compared to MA2” value is on record as “about 100” and the “times higher hCB2 affinity compared to NE40” value came to 5. Further, the Ki on hCB2 [4] was determined as 0.8 nM. Moreover, at mCB2 [5], the “mCB2 cAMP % eff (efficacy)” value stood at 101% and the EC50 – broadly, the concentration at which the effect is half-maximal – is 0.09 nM. Also, at hCB2 [6], the “hCB2 cAMP % eff (efficacy)” value turned out to be 102%, the half-maximal effective concentration (EC50) stood at 0.13 nM and the “functional behaviour in cAMP assay” value is “agonists”.
As for `CCCCOc1c(OC)ccc2cc(C(=O)NC3CCCCC3)c(=O)[nH]c12` [NE40, reference compound], the Ki at mCB2 [1] is 2 nM. Besides, at hCB1 [2], the Ki came out at 1040 nM and the “Ki ratio hCB1/hCB2” value is 241. The “EC50 ratio hCB1/hCB2” value on hCB1 [3] is listed as more than 1250. The Ki on hCB2 [4] came out at 4 nM. For the same molecule, on hCB2 [4] (hCB2 versus mCB2), the “species difference in binding affinity” value is recorded as “no species difference”. At mCB2 [5], the “mCB2 cAMP % eff (efficacy)” value is given as −128% and the EC50 was found to be 11 nM. On hCB2 [6], the “hCB2 cAMP % eff (efficacy)” value was −178%, the EC50 is 8 nM and the “functional behaviour in cAMP assay” value is recorded as “inverse agonist”.
`Cc1c(CCN2CCOCC2)c2cc(O[11CH3])ccc2n1C(=O)c1cccc(Cl)c1Cl` [[^11C]GW405833]: the “binding affinity for CB2” value in the assay with CB2 is 35 nM.
On to `Cc1c(CCN2CCOCC2)c2cc(OCC[18F])ccc2n1C(=O)c1cccc(Cl)c1Cl` [[^18F]FE-GW405833], for which the “binding affinity for CB2” value with CB2 is reported as 27 nM.
